# Measurements as given in US11590116B2 (THERAVANCE BIOPHARMA R&D IP, LLC, priority 2019, dated 2023).
# How the values were obtained:
# [1] = target: T1, recombinant human ALK5 (TGF-βR1) protein (Homo sapiens, UniProt P36897); assay: Biochemical ALK5 (TGF-βR1) assay to measure pKi (LANCE Ultra ULight kinase assay); conditions: apparent pKi from pIC50 by Cheng-Prusoff, read-out: ALK5 pKi (converted)
# T1 construct: purchased Life Technologies PR9075A
# T1 sequence (P36897 34-503): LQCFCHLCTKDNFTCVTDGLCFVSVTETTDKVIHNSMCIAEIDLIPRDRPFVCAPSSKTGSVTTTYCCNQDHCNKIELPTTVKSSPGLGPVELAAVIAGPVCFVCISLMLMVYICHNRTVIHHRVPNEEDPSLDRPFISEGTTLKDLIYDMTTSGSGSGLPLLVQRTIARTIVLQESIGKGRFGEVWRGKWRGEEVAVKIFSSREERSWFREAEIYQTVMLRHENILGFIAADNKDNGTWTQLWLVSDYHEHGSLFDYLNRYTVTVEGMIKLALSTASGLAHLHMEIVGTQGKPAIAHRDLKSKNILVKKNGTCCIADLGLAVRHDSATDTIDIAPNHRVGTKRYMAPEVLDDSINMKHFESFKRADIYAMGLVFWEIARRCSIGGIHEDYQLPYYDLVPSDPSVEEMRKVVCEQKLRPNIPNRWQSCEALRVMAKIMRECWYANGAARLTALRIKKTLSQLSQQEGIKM
# Method in brief: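 Dose range 10 μM–25 pM; enzyme + compound 60 min RT; ATP added (5× stock 125 μM, 2 mM DTT); 60 min 37 °C; stop with EDTA + Eu anti-phospho-Topo IIα Thr1342 Ab; TR-FRET ex 320/340, em 665 nm. 4-param pIC50 → pKi (Cheng-Prusoff).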
# [2] = tested on: TGF-β-stimulated SMAD3 phosphorylation in BEAS-2B cells; assay: Cellular ALK5 potency assay, inhibition of TGF-β stimulated pSMAD3 formation in BEAS-2B cells; type: cell-based; conditions: Homo sapiens; inhibition of TGF-β stimulated pSMAD3 formation, BEAS-2B cells; read-out: BEAS2B pIC50 (converted)
# Method in brief: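 SMAD3 phosphorylation was measured by AlphaLISA after 30 min TGF-β stimulation (10 ng/mL final) of BEAS-2B cells preincubated 1 h with compound at 37 °C. Results given as pIC50.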
SMILES,Ki [1] [nM],IC50 [2] [nM]
"Cc1cccc(-c2[nH]cnc2-c2ccc3ncc(-c4nc(C(=O)OCCN5CC[C@@H](N)C5)cs4)cc3c2)n1 [Compound 1246, 2-[(3R)-3-aminopyrrolidin-1-yl]ethyl 2-[6-[5-(6-methyl-2-pyridyl)-1H-imidazol-4-yl]-3-quinolyl]thiazole-4-carboxylate]",0.0398 to 0.316,200 to 1260
"Cc1cccc(-c2[nH]cnc2-c2ccc3ncc(-c4csc(C(=O)OCCN5CCC[C@H](N)C5)c4)cc3c2)n1 [Compound 1250, 2-[(3S)-3-amino-1-piperidyl]ethyl 4-[6-[5-(6-methyl-2-pyridyl)-1H-imidazol-4-yl]-3-quinolyl]thiophene-2-carboxylate]",0.398 to 3.16,25.1 to 158
"COc1nc(-c2ccc3ncc(C4=CCC5(CCNCC5)CC4)cc3c2)c(-c2cccc(C)n2)[nH]1 [Compound 1251, 9-[6-[2-methoxy-5-(6-methyl-2-pyridyl)-1H-imidazol-4-yl]-3-quinolyl]-3-azaspiro[5.5]undec-9-ene]",< 0.0316,25.1 to 158
"Cc1cccc(-c2[nH]cnc2-c2ccc3ncc(-c4nc(C(=O)OCCN5CCC[C@@H](N)C5)cs4)cc3c2)n1 [Compound 1252, 2-[(3R)-3-amino-1-piperidyl]ethyl 2-[6-[5-(6-methyl-2-pyridyl)-1H-imidazol-4-yl]-3-quinolyl]thiazole-4-carboxylate]",0.0398 to 0.316,25.1 to 158
"Cc1cccc(-c2[nH]cnc2-c2ccc3ncc(-c4csc(C(=O)OC[C@H]5CCCNC5)c4)cc3c2)n1 [Compound 1253, [(3S)-3-piperidyl]methyl 4-[6-[5-(6-methyl-2-pyridyl)-1H-imidazol-4-yl]-3-quinolyl]thiophene-2-carboxylate]",< 0.0316,25.1 to 158
"Cc1cccc(-c2[nH]cnc2-c2ccc3ncc(-c4nc(C(=O)OCCNC5CNC5)cs4)cc3c2)n1 [Compound 1254, 2-(azetidin-3-ylamino)ethyl 2-[6-[5-(6-methyl-2-pyridyl)-1H-imidazol-4-yl]-3-quinolyl]thiazole-4-carboxylate]",< 0.0316,200 to 1260
"Cc1cccc(-c2[nH]ncc2-c2ccc3ncc(C(=O)OCCC4CCNCC4)cc3c2)n1 [Compound 1255, 2-(4-piperidyl)ethyl 6-[5-(6-methyl-2-pyridyl)-1H-pyrazol-4-yl]quinoline-3-carboxylate]",0.0398 to 0.316,25.1 to 158
